The results in this text go back to PubChem BioAssay (NCI).

Test systems include RXF 393 renal; UACC-257 melanoma; A549 NSCLC; SK-MEL-28 melanoma; CCRF-CEM leukemia; SNB-75 CNS; UACC-62 melanoma; SNB-19 CNS; A498 renal; PC-3 prostate.
What all share (assay): NCI tumour cell line growth inhibition, 48 h

Values joined by “and” are separate entries in the source; they are usually repeats but may differ in a detail not shown here. Identical values can stand only once.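 How tested: cells in 96-well plates exposed to compound for 48 hours at five concentrations. GI50 = concentration required for 50% inhibition of growth. TGI is the concentration that stops growth completely.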 Where only a bound is given, the exact number is not on record here.

Consider `CCCCCCCCCCCCNC(=S)OCCCC`, for which the TGI in the experiment with RXF 393 renal, in the experiment on UACC-257 melanoma, in the experiment with A549 NSCLC, with SK-MEL-28 melanoma, with CCRF-CEM leukemia and in the experiment with SNB-75 CNS was over 100 µM throughout. The TGI in the experiment on UACC-62 melanoma, with SNB-19 CNS and with A498 renal was over 100 µM each time.

As to `CC(C)(C)c1ccc(OCCCCCCCN2CCNCC2)cc1`, the GI50 in the experiment on RXF 393 renal is 1.69 µM; in the experiment with UACC-257 melanoma, 1.98 µM; in the experiment on A549 NSCLC, 1.72 µM; with CCRF-CEM leukemia, 1.62 µM; with SNB-75 CNS it was 1.57 µM; in the experiment on UACC-62 melanoma, 1.88 µM. For the same compound, the GI50 in the experiment on SNB-19 CNS was 3.42 µM; in the experiment with PC-3 prostate it was 1.66 µM. Besides, the TGI is 3.37 µM with RXF 393 renal; 3.8 µM in the experiment with UACC-257 melanoma; 3.6 µM with A549 NSCLC; 4.1 µM in the experiment on CCRF-CEM leukemia; 3.74 µM in the experiment on SNB-75 CNS; 3.6 µM in the experiment with UACC-62 melanoma. The TGI amounted to 12.8 µM in the experiment with SNB-19 CNS and 3.85 µM in the experiment on PC-3 prostate.

With `O=C1c2ccccc2-n2c1nc1ccc([N+](=O)[O-])cc1c2=O`, the TGI with RXF 393 renal, in the experiment with UACC-257 melanoma, in the experiment with A549 NSCLC, with SK-MEL-28 melanoma, with CCRF-CEM leukemia and in the experiment on UACC-62 melanoma was over 100 µM throughout. The values for the TGI in the experiment with SNB-19 CNS, with PC-3 prostate and with A498 renal were over 100 µM, over 100 µM and 35.5 µM, respectively.

For `NNC(=S)N/N=C(\c1nc2ccc(Cl)cc2[nH]c1=O)C(O)c1cccc([N+](=O)[O-])c1` (configuration not stated), the TGI in the experiment with RXF 393 renal was over 100 µM; in the experiment on UACC-257 melanoma it was over 100 µM; with A549 NSCLC, over 100 µM; in the experiment with SK-MEL-28 melanoma, over 79.4 µM; in the experiment on CCRF-CEM leukemia, over 100 µM; in the experiment with SNB-75 CNS, over 100 µM. In addition, the TGI in the experiment on UACC-62 melanoma, with SNB-19 CNS and with A498 renal was over 100 µM throughout.

On to `C=CC(=O)N1CCN(c2nc(OC[C@@H]3CCCN3C)nc3c(F)c(-c4nc(N)cc(C)c4C(F)(F)F)c(Cl)cc23)[C@@H](C)C1`, for which the GI50 with RXF 393 renal was 1.07 µM; with UACC-257 melanoma, 1.57 µM; in the experiment on A549 NSCLC it was 3.36 µM; with SK-MEL-28 melanoma, 1.75 µM; with CCRF-CEM leukemia it was 3.08 µM; in the experiment with SNB-75 CNS, 1.22 µM. The GI50 is 3.44 µM in the experiment with SNB-19 CNS, 2.91 µM in the experiment with PC-3 prostate and 5.34 µM in the experiment on A498 renal. Moreover, the TGI is 2.5 µM in the experiment on RXF 393 renal; 3 µM in the experiment on UACC-257 melanoma; 13.6 µM with A549 NSCLC; 3.21 µM in the experiment on SK-MEL-28 melanoma; over 100 µM with CCRF-CEM leukemia; 2.74 µM in the experiment with SNB-75 CNS. The TGI with SNB-19 CNS came out at 12.8 µM; in the experiment on PC-3 prostate it was 12 µM; in the experiment with A498 renal, 19.3 µM.

Turning to `CCOC(=O)c1c(C)n(Cc2ccc(Cl)cc2Cl)c2c1cc(O)c1[nH]c(Cc3ccccc3)nc12`, the GI50 in the experiment on RXF 393 renal is 2.4 µM; in the experiment with UACC-257 melanoma, 19.3 µM; with A549 NSCLC it was 2.86 µM; in the experiment with SK-MEL-28 melanoma it was 13 µM; in the experiment on SNB-75 CNS, 5.89 µM; in the experiment with UACC-62 melanoma, 18.6 µM. Moreover, the GI50 with SNB-19 CNS was 5.54 µM; in the experiment with PC-3 prostate, 2.11 µM. Also, the TGI was 5.23 µM with RXF 393 renal; 39 µM in the experiment with UACC-257 melanoma; 14 µM with A549 NSCLC; 27.7 µM with SK-MEL-28 melanoma; 30.8 µM in the experiment with SNB-75 CNS; 34.1 µM in the experiment on UACC-62 melanoma. For the same compound, the TGI in the experiment with SNB-19 CNS stood at 23.1 µM; in the experiment on PC-3 prostate it was 5.62 µM.

As to `COc1ccc(-c2cc(-c3ccco3)c(C#N)c(=O)n2C2OC(COC(C)=O)C(OC(C)=O)C(OC(C)=O)C2OC(C)=O)cc1` (configuration not stated), the GI50 in the experiment with RXF 393 renal is > 100 µM and 21.8 µM; in the experiment with SK-MEL-28 melanoma, > 100 µM and 26.7 µM; in the experiment on UACC-62 melanoma, > 100 µM and 17.2 µM; with SNB-19 CNS it was > 100 µM and 42.8 µM; in the experiment with A498 renal it was > 100 µM and 22 µM. In addition, the TGI in the experiment with RXF 393 renal is > 100 µM and 66.2 µM; in the experiment with UACC-257 melanoma it was over 100 µM; in the experiment on A549 NSCLC it was over 100 µM; with SK-MEL-28 melanoma it was over 100 µM; with CCRF-CEM leukemia it was over 100 µM; in the experiment on SNB-75 CNS, over 100 µM. Also, the TGI with UACC-62 melanoma is over 100 µM; in the experiment with SNB-19 CNS, over 100 µM; with A498 renal, > 100 µM and 75.8 µM.

On to `NC(=O)c1c(NC(=O)c2ccc(C(F)(F)F)cc2Cl)sc2c1CCC(=O)C2`, for which the GI50 in the experiment on RXF 393 renal was 0.259 µM; with UACC-257 melanoma it was 0.654 µM; in the experiment on A549 NSCLC, 2.69 µM; with SK-MEL-28 melanoma, 0.531 µM; with CCRF-CEM leukemia, 0.146 µM; with UACC-62 melanoma, 0.274 µM. The figures for the GI50 in the experiment with SNB-19 CNS, with PC-3 prostate and in the experiment with A498 renal were 0.375 µM, 0.164 µM and 1.95 µM, respectively. Also, the TGI with RXF 393 renal was 0.881 µM; in the experiment on UACC-257 melanoma it was 3.46 µM; in the experiment on A549 NSCLC it was 14.4 µM; with SK-MEL-28 melanoma, 2.04 µM; with CCRF-CEM leukemia it was over 100 µM; with UACC-62 melanoma, 1.21 µM. Moreover, the TGI was 3.96 µM in the experiment on SNB-19 CNS, 1.3 µM in the experiment on PC-3 prostate and 6.37 µM with A498 renal.

`CC1(C)CCOC(Sc2ccccc2)C1` (configuration not stated): the TGI in the experiment on RXF 393 renal, with UACC-257 melanoma, in the experiment on A549 NSCLC, with SK-MEL-28 melanoma, in the experiment with CCRF-CEM leukemia and in the experiment on SNB-75 CNS was over 100 µM each time. The TGI in the experiment with UACC-62 melanoma, in the experiment with SNB-19 CNS and in the experiment on A498 renal was over 100 µM each time.

Turning to `O=C1C=C(c2ccccc2)NC1(c1ccccc1)c1cc(-c2ccccc2)[nH]c1-c1ccccc1` (configuration not stated), the TGI is 0.586 µM in the experiment on RXF 393 renal; over 100 µM in the experiment on UACC-257 melanoma; over 100 µM with A549 NSCLC; over 100 µM with SK-MEL-28 melanoma; over 100 µM in the experiment with CCRF-CEM leukemia; over 100 µM in the experiment with SNB-75 CNS. For the same compound, the TGI in the experiment on UACC-62 melanoma, in the experiment with SNB-19 CNS and with A498 renal was over 100 µM throughout.
